In ChEMBL document CHEMBL3351889, “Identification of a novel 2-pyridyl-benzensulfonamide derivative, RQ-00203078, as a selective and orally active TRPM8 antagonist” (Bioorg Med Chem Lett, 2014):
≈ marks a conversion by molar mass, not a printed value.

What was measured:
[1] = Intrinsic clearance in human liver microsomes; assay type: ADME; conditions: read-out: CLH
[2] = Equilibrium solubility of the compound; assay type: physicochemical
[3] = target: Transient receptor potential cation channel subfamily M member 8 (Homo sapiens, UniProt Q7Z2W7); assay: Antagonist activity at human TRPM8 expressed in HEK293 cells assessed as inhibition of menthol induced Ca2+ influx; assay type: cell-based
Transient receptor potential cation channel subfamily M member 8 (Homo sapiens, UniProt Q7Z2W7), sequence (Q7Z2W7 whole entry): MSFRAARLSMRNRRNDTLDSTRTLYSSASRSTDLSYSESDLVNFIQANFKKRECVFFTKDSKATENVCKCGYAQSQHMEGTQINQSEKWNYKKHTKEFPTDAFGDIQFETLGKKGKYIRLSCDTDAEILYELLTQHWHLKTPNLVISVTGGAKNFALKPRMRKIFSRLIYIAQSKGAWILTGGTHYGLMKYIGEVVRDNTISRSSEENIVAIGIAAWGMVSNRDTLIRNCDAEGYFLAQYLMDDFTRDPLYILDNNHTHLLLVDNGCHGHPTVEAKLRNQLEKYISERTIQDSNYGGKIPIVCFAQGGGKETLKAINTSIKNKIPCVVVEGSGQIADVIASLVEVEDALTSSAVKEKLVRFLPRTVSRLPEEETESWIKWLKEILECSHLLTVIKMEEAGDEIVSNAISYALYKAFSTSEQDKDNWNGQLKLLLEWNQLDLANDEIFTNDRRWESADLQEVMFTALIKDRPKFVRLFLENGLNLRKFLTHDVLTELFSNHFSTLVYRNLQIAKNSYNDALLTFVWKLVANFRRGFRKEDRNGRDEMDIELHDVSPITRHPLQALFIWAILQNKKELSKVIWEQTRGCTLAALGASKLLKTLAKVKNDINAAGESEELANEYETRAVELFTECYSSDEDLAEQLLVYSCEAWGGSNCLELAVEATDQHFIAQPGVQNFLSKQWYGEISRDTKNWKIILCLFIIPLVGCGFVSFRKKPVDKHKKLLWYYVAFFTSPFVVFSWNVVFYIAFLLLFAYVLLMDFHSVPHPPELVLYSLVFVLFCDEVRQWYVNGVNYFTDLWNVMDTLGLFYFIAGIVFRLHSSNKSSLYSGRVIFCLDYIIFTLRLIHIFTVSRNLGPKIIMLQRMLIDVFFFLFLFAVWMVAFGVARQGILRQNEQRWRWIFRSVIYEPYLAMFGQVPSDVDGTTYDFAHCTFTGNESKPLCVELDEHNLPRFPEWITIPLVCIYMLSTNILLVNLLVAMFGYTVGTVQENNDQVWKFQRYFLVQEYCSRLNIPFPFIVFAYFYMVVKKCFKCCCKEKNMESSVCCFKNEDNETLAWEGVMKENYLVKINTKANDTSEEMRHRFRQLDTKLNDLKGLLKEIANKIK

[4] = test system: Rattus norvegicus; assay: Antiallodynic activity in icilin-induced wet-dog shake rat model compound administered po 1 hr prior to icilin challenge measured over 30 mins; assay type: functional
[5] = target: Transient receptor potential cation channel subfamily A member 1 (Homo sapiens, UniProt O75762); assay: Antagonist activity at human TRPA1 expressed in HEK293 cells assessed as inhibition of AITC-induced Ca2+ influx; assay type: cell-based
[6] = Intrinsic clearance in rat liver microsomes; assay type: ADME; conditions: read-out: CLH
[7] = Cmax in rat at 3 mg/kg, po; assay type: ADME, organism-based; parameters: dose 3 mg/kg, route oral; conditions: in vivo
[8] = target: Transient receptor potential cation channel subfamily V member 1 (Homo sapiens, UniProt Q8NER1); assay: Antagonist activity at human TRPV1 expressed in HEK293 cells assessed as inhibition of capsaicin-induced Ca2+ influx; assay type: cell-based
Transient receptor potential cation channel subfamily V member 1 (Homo sapiens, UniProt Q8NER1), sequence (Q8NER1 whole entry, looked up): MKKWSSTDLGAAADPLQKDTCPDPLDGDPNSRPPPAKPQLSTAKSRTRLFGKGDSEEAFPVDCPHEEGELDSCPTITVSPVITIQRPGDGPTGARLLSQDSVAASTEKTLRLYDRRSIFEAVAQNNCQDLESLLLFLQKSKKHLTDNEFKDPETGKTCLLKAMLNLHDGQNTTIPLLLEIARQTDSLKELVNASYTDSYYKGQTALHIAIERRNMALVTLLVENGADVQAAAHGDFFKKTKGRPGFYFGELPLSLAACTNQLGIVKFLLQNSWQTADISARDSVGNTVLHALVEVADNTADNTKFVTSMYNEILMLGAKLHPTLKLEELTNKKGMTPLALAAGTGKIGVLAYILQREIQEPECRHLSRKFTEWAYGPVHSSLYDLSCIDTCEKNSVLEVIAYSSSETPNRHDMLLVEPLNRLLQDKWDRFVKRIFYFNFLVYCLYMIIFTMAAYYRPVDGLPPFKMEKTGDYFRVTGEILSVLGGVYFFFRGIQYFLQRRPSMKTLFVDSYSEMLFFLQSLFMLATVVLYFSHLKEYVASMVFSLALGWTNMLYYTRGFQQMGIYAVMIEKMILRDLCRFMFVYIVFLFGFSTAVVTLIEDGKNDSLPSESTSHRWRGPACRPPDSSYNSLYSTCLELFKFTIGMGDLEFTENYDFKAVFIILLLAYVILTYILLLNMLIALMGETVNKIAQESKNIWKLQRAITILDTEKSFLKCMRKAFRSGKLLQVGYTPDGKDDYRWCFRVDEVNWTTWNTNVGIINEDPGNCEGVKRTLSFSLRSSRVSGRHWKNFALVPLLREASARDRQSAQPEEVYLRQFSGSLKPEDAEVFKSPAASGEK

[9] = Oral bioavailability in rat at 3 mg/kg; assay type: ADME, organism-based; conditions: in vivo
[10] = target: Transient receptor potential cation channel subfamily M member 8 (Rattus norvegicus, UniProt Q8R455); assay: Antagonist activity at rat TRPM8 assessed as inhibition of menthol induced Ca2+ influx by cell-based assay
Transient receptor potential cation channel subfamily M member 8 (Rattus norvegicus, UniProt Q8R455), sequence (Q8R455 whole entry): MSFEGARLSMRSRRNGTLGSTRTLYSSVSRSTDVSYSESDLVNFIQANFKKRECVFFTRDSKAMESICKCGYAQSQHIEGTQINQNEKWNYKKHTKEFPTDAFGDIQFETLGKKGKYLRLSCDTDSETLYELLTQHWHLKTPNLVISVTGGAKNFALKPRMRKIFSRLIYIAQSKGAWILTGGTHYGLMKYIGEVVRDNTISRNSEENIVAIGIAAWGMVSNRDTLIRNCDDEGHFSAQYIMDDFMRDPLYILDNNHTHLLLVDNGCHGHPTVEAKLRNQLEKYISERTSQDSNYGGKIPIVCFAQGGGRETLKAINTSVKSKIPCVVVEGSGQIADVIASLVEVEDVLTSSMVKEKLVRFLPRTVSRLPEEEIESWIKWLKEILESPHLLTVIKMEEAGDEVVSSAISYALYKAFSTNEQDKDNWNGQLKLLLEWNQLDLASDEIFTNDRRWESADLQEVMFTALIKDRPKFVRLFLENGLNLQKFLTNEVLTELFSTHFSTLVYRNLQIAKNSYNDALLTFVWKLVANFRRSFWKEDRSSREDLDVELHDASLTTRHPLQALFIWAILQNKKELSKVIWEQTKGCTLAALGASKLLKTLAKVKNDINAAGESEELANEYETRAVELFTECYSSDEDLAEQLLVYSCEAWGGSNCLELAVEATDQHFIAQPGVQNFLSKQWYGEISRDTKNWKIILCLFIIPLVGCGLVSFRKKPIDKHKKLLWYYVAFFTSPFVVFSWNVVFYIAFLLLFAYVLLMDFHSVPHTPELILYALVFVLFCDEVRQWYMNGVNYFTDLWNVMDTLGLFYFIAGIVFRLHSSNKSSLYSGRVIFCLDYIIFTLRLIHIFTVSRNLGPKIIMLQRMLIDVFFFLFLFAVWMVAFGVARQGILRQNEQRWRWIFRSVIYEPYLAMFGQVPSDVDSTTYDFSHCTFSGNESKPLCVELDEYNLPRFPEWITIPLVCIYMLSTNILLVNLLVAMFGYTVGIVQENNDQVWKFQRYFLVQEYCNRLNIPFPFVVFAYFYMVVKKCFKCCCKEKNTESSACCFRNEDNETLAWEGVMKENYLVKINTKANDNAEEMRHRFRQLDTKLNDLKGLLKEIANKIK

[11] = target: Transient receptor potential cation channel subfamily V member 1 (Rattus norvegicus, UniProt O35433); assay: Antagonist activity at rat TRPV1 expressed in HEK293 cells assessed as inhibition of capsaicin-induced Ca2+ influx; assay type: cell-based
Transient receptor potential cation channel subfamily V member 1 (Rattus norvegicus, UniProt O35433), sequence (O35433 whole entry, looked up): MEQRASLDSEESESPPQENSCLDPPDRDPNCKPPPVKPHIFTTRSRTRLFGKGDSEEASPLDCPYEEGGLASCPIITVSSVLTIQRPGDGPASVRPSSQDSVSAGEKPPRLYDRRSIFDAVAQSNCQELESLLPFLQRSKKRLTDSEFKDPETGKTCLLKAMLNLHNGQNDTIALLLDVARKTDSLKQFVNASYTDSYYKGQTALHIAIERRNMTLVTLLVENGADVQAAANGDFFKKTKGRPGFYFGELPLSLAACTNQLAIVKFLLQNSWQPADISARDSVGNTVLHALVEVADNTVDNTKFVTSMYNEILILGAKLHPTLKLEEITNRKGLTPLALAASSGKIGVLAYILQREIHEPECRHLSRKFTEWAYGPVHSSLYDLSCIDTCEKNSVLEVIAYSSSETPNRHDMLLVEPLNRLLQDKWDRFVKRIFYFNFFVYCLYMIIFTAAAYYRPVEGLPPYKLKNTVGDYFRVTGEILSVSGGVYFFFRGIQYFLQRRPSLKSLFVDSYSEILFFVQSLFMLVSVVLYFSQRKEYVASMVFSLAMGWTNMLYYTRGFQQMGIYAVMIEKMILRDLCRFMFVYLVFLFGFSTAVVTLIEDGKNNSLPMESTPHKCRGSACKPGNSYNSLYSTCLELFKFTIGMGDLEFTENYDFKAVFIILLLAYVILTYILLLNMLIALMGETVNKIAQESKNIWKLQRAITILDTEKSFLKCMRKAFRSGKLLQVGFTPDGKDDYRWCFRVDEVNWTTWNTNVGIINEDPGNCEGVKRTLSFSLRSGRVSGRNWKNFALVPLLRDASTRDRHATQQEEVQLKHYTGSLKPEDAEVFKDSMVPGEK

[12] = target: Transient receptor potential cation channel subfamily V member 4 (Homo sapiens, UniProt Q9HBA0); assay: Antagonist activity at human TRPV4 expressed in HEK293 cells assessed as inhibition of hypotonic solution-induced Ca2+ influx; assay type: cell-based
[13] = Fraction unbound in rat plasma; assay type: ADME, cell-free
[14] = target: Transient receptor potential cation channel subfamily A member 1 (Rattus norvegicus, UniProt Q6RI86); assay: Antagonist activity at rat TRPA1 expressed in HEK293 cells assessed as inhibition of AITC-induced Ca2+ influx; assay type: cell-based
Transient receptor potential cation channel subfamily A member 1 (Rattus norvegicus, UniProt Q6RI86), sequence (Q6RI86 whole entry): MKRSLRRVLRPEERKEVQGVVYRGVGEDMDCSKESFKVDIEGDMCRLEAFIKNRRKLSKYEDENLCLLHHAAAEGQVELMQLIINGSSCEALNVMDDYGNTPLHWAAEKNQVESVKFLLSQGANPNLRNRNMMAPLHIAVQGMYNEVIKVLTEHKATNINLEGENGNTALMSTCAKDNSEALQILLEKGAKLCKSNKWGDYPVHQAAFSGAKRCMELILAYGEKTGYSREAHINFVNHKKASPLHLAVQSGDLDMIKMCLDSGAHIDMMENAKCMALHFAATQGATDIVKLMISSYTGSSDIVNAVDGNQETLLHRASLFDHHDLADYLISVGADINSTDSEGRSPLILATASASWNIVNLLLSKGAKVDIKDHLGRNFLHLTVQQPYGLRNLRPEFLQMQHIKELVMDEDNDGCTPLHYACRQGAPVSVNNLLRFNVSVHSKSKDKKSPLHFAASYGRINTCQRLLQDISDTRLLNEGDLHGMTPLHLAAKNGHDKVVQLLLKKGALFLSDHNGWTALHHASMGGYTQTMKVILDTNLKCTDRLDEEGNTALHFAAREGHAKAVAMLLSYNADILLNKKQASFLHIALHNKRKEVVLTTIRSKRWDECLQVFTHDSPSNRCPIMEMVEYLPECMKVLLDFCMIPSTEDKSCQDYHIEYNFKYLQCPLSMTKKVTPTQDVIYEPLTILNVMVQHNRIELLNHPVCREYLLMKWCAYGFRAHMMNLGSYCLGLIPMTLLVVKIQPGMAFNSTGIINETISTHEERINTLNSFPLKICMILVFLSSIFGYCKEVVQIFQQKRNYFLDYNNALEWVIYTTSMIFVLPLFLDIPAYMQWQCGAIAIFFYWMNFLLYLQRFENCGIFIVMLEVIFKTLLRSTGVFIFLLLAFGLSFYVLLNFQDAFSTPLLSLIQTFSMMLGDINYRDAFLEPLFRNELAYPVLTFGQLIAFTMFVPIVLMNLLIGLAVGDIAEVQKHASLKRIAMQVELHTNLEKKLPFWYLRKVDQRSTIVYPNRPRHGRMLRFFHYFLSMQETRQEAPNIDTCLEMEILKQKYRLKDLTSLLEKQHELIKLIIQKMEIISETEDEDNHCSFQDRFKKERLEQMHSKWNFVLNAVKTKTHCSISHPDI

Row | CLint scaled [1] | IC50 [3] | Compound | further results
1 | < 7 mL/min/kg | 61 nM | O=C(O)c1ccc(S(=O)(=O)N(Cc2ccccc2)c2ncc(C(F)(F)F)cc2Cl)cc1 | solubility thermodynamic [2]: 185 µM (≈ 87.1 µg/mL)
2 | > 168 mL/min/kg | 42 nM | O=S(=O)(c1ccc(CO)cc1)N(Cc1ccccc1)c1ncc(C(F)(F)F)cc1Cl | solubility thermodynamic [2]: 35 µM (≈ 16 µg/mL)
3 | > 168 mL/min/kg | 67 nM | CN(C)C(=O)c1ccc(S(=O)(=O)N(Cc2ccccc2)c2ncc(C(F)(F)F)cc2Cl)cc1 | solubility thermodynamic [2]: 37 µM (≈ 18.4 µg/mL)
4 |  | 9860 nM | O=C(O)c1ccc(S(=O)(=O)N(Cc2ccccc2)c2ncccc2Cl)cc1 | 
5 |  | 736 nM | Cc1cc(C(F)(F)F)cnc1N(Cc1ccccc1)S(=O)(=O)c1ccc(C(=O)O)cc1 | 
6 |  | 2470 nM | N#Cc1cc(C(F)(F)F)cnc1N(Cc1ccccc1)S(=O)(=O)c1ccc(C(=O)O)cc1 | 
7 |  | 762 nM | O=C(O)c1ccc(S(=O)(=O)N(CCc2ccccc2)c2ncc(C(F)(F)F)cc2Cl)cc1 | 
8 | 81 mL/min/kg | 49 nM | O=C(O)c1ccc(S(=O)(=O)N(CCCc2ccccc2)c2ncc(C(F)(F)F)cc2Cl)cc1 | 
9 | < 7 mL/min/kg | 3720 nM | O=C(O)c1ccc(S(=O)(=O)N(CCN2CCOCC2)c2ncc(C(F)(F)F)cc2Cl)cc1 | 
10 | < 7 mL/min/kg | 41 nM | O=C(O)c1ccc(S(=O)(=O)N(Cc2cccc(C(F)(F)F)c2)c2ncc(C(F)(F)F)cc2Cl)cc1 | 
11 | < 7 mL/min/kg | 96 nM | O=C(O)c1ccc(S(=O)(=O)N(Cc2ccccc2OC(F)(F)F)c2ncc(C(F)(F)F)cc2Cl)cc1 | 
12 | < 7 mL/min/kg | 8.3 nM | O=C(O)c1ccc(S(=O)(=O)N(Cc2ccc(OC(F)(F)F)cc2)c2ncc(C(F)(F)F)cc2Cl)cc1 | ED50 [4]: 0.65 mg/kg; IC50 [5]: > 10000 nM; CLint scaled [6]: < 10.4 mL/min/kg; Cmax [7]: 2300 ng/mL; IC50 [8]: > 10000 nM; bioavailability [9]: 86%; IC50 [10]: 5.8 nM; IC50 [11]: > 3000 nM; IC50 [12]: > 3000 nM; fraction unbound [13]: 0.0031; IC50 [14]: > 10000 nM
13 | < 7 mL/min/kg | 11 nM | O=C(O)c1ccc(S(=O)(=O)N(Cc2ccc(C(F)(F)F)cc2)c2ncc(Cl)cc2Cl)cc1 | ED50 [4]: 1.3 mg/kg; CLint scaled [6]: < 10.4 mL/min/kg; IC50 [10]: 9 nM; fraction unbound [13]: 0.011
14 | 8.5 mL/min/kg | 6.2 nM | Cc1c(N(Cc2ccc(C(F)(F)F)c(F)c2)S(=O)(=O)c2ccc(C(=O)O)cc2)sc2ccccc12 | 
